Data set [1] is described as follows: Rate of formation of aziridine under physiological conditions. It counts as ADME.
Data set [2] in a line: Dissociation constant value of the compound. The following applies: read-out: Ki/ki. It counts as physicochemical.
A further data set relates to Escherichia coli. Nature of the data set: Concentration at which first-order inactivation was observed by the inhibition of Diaminopimelate epimerase.

The record followed here is ChEMBL document CHEMBL1124870, “2-(4-Amino-4-carboxybutyl)aziridine-2-carboxylic acid. A potent irreversible inhibitor of diaminopimelic acid epimerase. Spontaneous formation from alpha-(halomethyl)diaminopimelic acids” (J Med Chem, 1990).

As to `NC(CCCC(N)(CF)C(=O)O)C(=O)O` (stereo unspecified), in data set [1], the k0 came to 0.000079 min⁻¹ and the kik0/Ki was 0.0000145 uM-1 min**-2.
For `NC(CCCC(N)(CCl)C(=O)O)C(=O)O` (stereo unspecified) the same measures were 0.011 min⁻¹ and 0.002 µM-1 min··-2.
In the case of `NC(CCCC1(C(=O)O)CN1)C(=O)O` (stereo unspecified), in data set [2], the Kd came to 5.5 µM. Moreover, the Concentration in the data set with Escherichia coli came to 2 µM.
